Reference: patent publication US12011517B2, “Air freshening product” (The Procter & Gamble Company, priority 2019, dated 2024)

Structure (SMILES)	Average Vapor Pressure (Torr) at 25 degrees Celsius [Torr]
CCCCCCC/C=C/C=O [(E)-2-Decen-1-al]	0.0674
CCC/C=C/C=O [(E)-2-Hexen-1-al]	10.7
